Reference: ChEMBL document CHEMBL1131667, “4-Phenylthiazole derivatives inhibit IL-6 secretion in osteoblastic cells and suppress bone weight loss in ovariectomized mice” (Bioorg Med Chem Lett, 1999)
In brackets after ≈: the same amount, converted by molar mass.

Tests used:
[1] = Inhibition the IL-6 secretion stimulated at a concentration of 10 ng/ml in osteoblastic MC3T3-E 1 cells.; format: functional; details: Mus musculus, MC3T3-E1
[2] = tested on: Mus musculus; experiment: Effect on femoral weight loss in ovariectomized mice at a dose of 0.4 mg/kg/day, ip; format: functional, organism-based
[3] = tested on: Mus musculus; experiment: Effect on femoral weight loss in ovariectomized mice at a dose of 2.0mg/kg/day, ip; format: functional, organism-based

SMILES | IC50 [1] | Recovery [2] | Recovery [3]
CNc1sc(N)nc1-c1ccccc1 | 40 µg/mL (≈ 195 µM) |  | 
CCOC(=O)c1sc(-c2ccncc2)nc1-c1ccccc1 | 90 µg/mL (≈ 290 µM) |  | 
CCOC(=O)c1sc(N)nc1-c1ccccc1 | 6 µg/mL (≈ 24.2 µM) |  | 
CCOC(=O)c1sc(N)nc1-c1ccc(Cl)cc1 | 6 µg/mL (≈ 21.2 µM) |  | 
Cc1sc(N)nc1-c1ccc(Cl)c(Cl)c1 | 35 µg/mL (≈ 135 µM) |  | 
Cc1sc(N)nc1-c1ccc(C(F)(F)F)cc1 | 3 µg/mL (≈ 11.6 µM) |  | 
Cc1sc(N)nc1-c1ccccc1 | 10 µg/mL (≈ 52.6 µM) |  | 
Nc1nc(-c2ccc(Cl)cc2)c(C(=O)O)s1 | 20 µg/mL (≈ 78.5 µM) | 7.1% | 8.6%
COc1ccc(-c2nc(N)sc2C)cc1 | 7 µg/mL (≈ 31.8 µM) |  | 
Cc1sc(N)nc1-c1ccc(-c2ccccc2)cc1 | 39 µg/mL (≈ 146 µM) |  | 
Cc1sc(N)nc1-c1ccc(O)cc1 | 1 µg/mL (≈ 4.85 µM) | 13.9% | 35.5%
Nc1nc(-c2ccccc2)c(C(=O)O)s1 | > 100 µg/mL |  | 
Cc1sc(N)nc1-c1ccc(Cl)cc1 | 10 µg/mL (≈ 44.5 µM) | 22.8% | 57.8%
CCOC(=O)c1sc(NC)nc1-c1ccccc1 | 40 µg/mL (≈ 152 µM) |  | 
Cc1sc(N)nc1-c1cccc(Cl)c1 | 2.5 µg/mL (≈ 11.1 µM) |  | 
CCOC(=O)c1scnc1-c1ccccc1 | 30 µg/mL (≈ 129 µM) |  | 
Cc1sc(N)nc1-c1ccc(F)cc1 | 27 µg/mL (≈ 130 µM) |  | 
Cc1sc(N)nc1-c1ccc(Cl)cc1Cl | 8 µg/mL (≈ 30.9 µM) |  | 
Cc1sc(N)nc1-c1ccccc1Cl | 50 µg/mL (≈ 223 µM) |  | 
Nc1nc(-c2ccccc2)cs1 | 60 µg/mL (≈ 340 µM) |  | 
CCOC(=O)c1sc(NC=O)nc1-c1ccccc1 | > 100 µg/mL |  | 
Cc1ccc(-c2nc(N)sc2C)cc1 | 24 µg/mL (≈ 117 µM) |  | 
CCc1sc(N)nc1-c1ccccc1 | > 100 µg/mL |  | 
CCCNC(=O)c1sc(N)nc1-c1ccccc1 | 40 µg/mL (≈ 153 µM) |  | 
CCOC(=O)c1sc(C)nc1-c1ccccc1 | 40 µg/mL (≈ 162 µM) |  | 
